Test results reported in publication PMC10002375, “Synthesis of 3-(2-Alkylthio-4-chloro-5-methylbenzenesulfonyl)-2-(1-phenyl-3-arylprop-2-enylideneamino)guanidine Derivatives with Pro-Apoptotic Activity against Cancer Cells” (International Journal of Molecular Sciences, 2023).

How the values were obtained:
HeLa (cervical cancer) = assay: MTT cell viability assay, HeLa; type: cell-based, human
Description: All chemicals, if not stated otherwise, were obtained from Sigma-Aldrich (St. Louis, MO, USA). The MCF-7 cell line was purchased from Cell Lines Services (Eppelheim, Germany), the HeLa and HCT-116 cell lines were obtained from the Department of Microbiology, Tumor and Cell Biology, Karolinska Institute (Stockholm, Sweden). Cells were cultured in Dulbecco’s modified Eagle’s medium (DMEM) supplemented with 10% fetal bovine serum, 2 mM glutamine, 100 units/mL penicillin, and 100 μg/mL streptomycin. Cultures were maintained in a humidified atmosphere with 5% CO2 at 37 °C in an incubator (HeraCell, Heraeus, Langenselbold, Germany).
(§1) Cell viability was determined using the MTT (3-(4,5-dimethylthiazol-2-yl)-2,5-diphenyl-tetrazoliumbromide) assay. Stock solutions of the studied compounds were prepared in 100% DMSO. […] Cells were seeded in 96-well plates at a density of 5 × 10^3 cells/well and treated for 72 h with the examined compounds in the concentration range 1–100 μM (1, 10, 25, 50, and 100 μM). Following treatment, MTT (0.5 mg/mL) was added to the medium and cells were further incubated for 2 h at 37 °C. Cells were lysed with DMSO and the absorbance of the formazan solution was measured at 550 nm with a plate reader (1420 multilabel counter, Victor, Jügesheim, Germany). […] The experiment was performed in triplicate. Values are expressed as the mean ± SD of at least three independent experiments.

HCT-116 cells [1] = assay: Mitochondrial membrane potential (JC-1, flow cytometry), HCT-116; type: cell-based, human; conditions: HCT-116, 72 h, 24 at 10 or 25 μM, 31 at 25 μM
Description: (§2) A decrease in mitochondrial potential is one of the earliest hallmarks of apoptosis. A common method for indication of cells with high and low Δψm is flow cytometry combined with specific fluorescent probes, such as JC-1 (5,5′,6,6′-tetrachloro-1,1′,3,3′-tetraethylbenzimidazolylcarbocyanine iodide). JC-1 accumulates in mitochondria and forms complexes (J aggregates) with red fluorescence in healthy cells with a normal ΔΨm, whereas in apoptotic cells with a low ΔΨm exists as a monomer with green fluorescence.
(§3) Analyzed cells were seeded into wells of a 24-well plate at a density of 5 × 10^4 cells in 1000 µL, incubated overnight, and then the medium was exchanged for dilutions of reagents 24 and 31. Before the end of 72 h of incubation, MitoProbe JC-1 (25 µM) was added into each plate well. Carbonyl cyanide m-chlorophenylhydrazone CCCP (200 nM) as the mitochondrial oxidative phosphorylation uncoupler was added into the positive control 15 min before JC-1 was added. After 30 min of JC-1 staining, cells were washed with PBS and then trypsinized (Corning® 25-053CI). Cells suspended in PBS were analyzed by flow cytometry at λ excitation (ex) = 488 nm and λ emission (em) = 525/570 nm (LSR II BD Biosciences, San Jose, CA, USA).

HaCaT cells = assay: MTT assay with non-cancerous HaCaT cell line; type: cell-based; conditions: Homo sapiens, HaCaT, 72 h
Description: The important feature of new cytotoxic agents is their selective activity against cancer cells with a weak impact on the physiology of healthy cells. Determination of the selectivity of compounds 14–19 and 24–29 was done by MTT assay with the non-cancerous HaCaT cell line (Table 2). […] A similar effect was observed also for compound 26. […] Due to the excellent selectivity of compound 30 towards HCT-116 cells and at the same time high cytotoxicity towards this cell line (IC50 = 8 μM); derivative 30 may be a good hit compound for the search for chemotherapeutic agents for the treatment of colon cancer.
as §1

HCT-116 cells [2] = assay: Cell cycle distribution by flow cytometry, HCT-116; type: cell-based, human; conditions: for cells in sub-G1 phase: 72 h, control 1.15%
Description: (§4) The cell cycle distribution was measured by flow cytometry analysis after incubation of MCF-7, HeLa, and HCT-116 with compounds 24 and 31 for 72 h.

HeLa cells [3] = assay: Cell cycle distribution by flow cytometry, HeLa; type: cell-based, human; conditions: 72 h; for cells in sub-G1 phase: control 5.08%
Description: as §4

HeLa cells [4] = assay: Mitochondrial membrane potential (JC-1, flow cytometry), HeLa; type: cell-based, human; conditions: 72 h, 24 at 10 or 25 μM, 31 at 25 μM
Description: as §2, §3

[5] = test system: MCF-7, HeLa and HCT-116 cells; assay: MTT assay, mean over three tested cancer cell lines; type: cell-based, human
Description: The cytotoxic activity of the compounds 8–33 has been evaluated in MTT assays against three human cancer cell lines MCF-7 (breast cancer), HeLa (cervical cancer), and HCT-116 (colon cancer) and it was expressed as IC50 values in μM (Table 1).
Although the highest activity of the compounds with hydroxyl groups as the R^2 residue was against colon cancer cells, the inhibition of the growth of breast cancer cells was also remarkable.
as §1

For `Cc1cc(S(=O)(=O)NC(N)=NN=C(C=Cc2ccccc2O)c2ccccc2)c(SCc2ccccc2Cl)cc1Cl` [Compound 24, 3-{4-chloro-2-[(2-chlorophenyl)methylthio]-5-methylbenzenesulfonyl}-2-[3-(2-hydroxyphenyl)-1-phenylprop-2-enylideneamino]guanidine], the “Selectivity Index HeLa/HaCaT” value (HeLa (cervical cancer); HeLa versus HaCaT, from IC50 values) was 1.9, the IC50 (HeLa (cervical cancer); Homo sapiens, HeLa, MTT, 72 h) was 17 ± 0.5 µM and the “change of mitochondrial membrane potential (ΔΨm)” value (HCT-116 cells [1]) was “remarkable decrease in ΔΨm”. For the same compound, the IC50 (HaCaT cells) was 33 ± 2 µM, the “cells in sub-G1 phase” value (HCT-116 cells [2]; HCT-116, 10 μM) was 49.69% and the “cells in sub-G1 phase” value (HCT-116 cells [2]; HCT-116, 25 μM) was 65.31%. The “effect on cell cycle distribution” value (HCT-116 cells [2]; HCT-116, 72 h, 24 at 10 and 25 μM, 31 at 25 μM) was “significant increase in the cell distribution in the sub-G1 phase”, the “cells in sub-G1 phase” value (HeLa cells [3]; 10 μM) was 7.45% and the “cells in sub-G1 phase” value (HeLa cells [3]; 25 μM) was 18.07%. For the same compound, the “effect on cell cycle distribution” value (HeLa cells [3]; 24 at 10 and 25 μM, 31 at 25 μM) was “significant increase in the cell distribution in the sub-G1 phase”, the “change of mitochondrial membrane potential (ΔΨm)” value (HeLa cells [4]) was “remarkable decrease in ΔΨm” and the “selectivity ratio, mean IC50 against cancer cells versus IC50 for HaCaT” value ([5]; HaCaT versus mean of three cancer cell lines) was 2.6. It also gave an IC50 ([5]; Homo sapiens, mean of MCF-7, HeLa, HCT-116, MTT, 72 h, read-out: mean IC50 against three tested cell lines) of 12.7 µM.
